According to patent US5646028A, “Alkaline serine protease streptomyces griseus var. alkaliphus having enhanced stability against urea or guanidine” (The Clorox Company, priority 1995, dated 1997):
Values joined by “and” are separate entries in the source; they are usually repeats but may differ in a detail not shown here. Equal entries are not always repeated. Where two headings read alike, the source gives them in different places. *1 amine or outer side, *2 acyl side, *3 side chain or, on linkers, in order; H or OH if unused. Where a SMILES comes first, the peptide text is derived from it. The star is where a group is joined. pNA = O=[N+]([O-])c1ccc(N*)cc1; Suc = O=C(CCC(=O)[*:2])[*:1]

B1: SGPC: alkaline serine protease from Streptomyces griseus var. alkaliphilus No. 33, apparent molecular weight about 19,000 daltons (protein, UniProt P52320 203-457, looked up)
Streptogrisin-C: ADIRGGDAYYMNGSGRCSVGFSVTRGTQNGFATAGHCGRVGTTTNGVNQQAQGTFQGSTFPGRDIAWVATNANWTPRPLVNGYGRGDVTVAGSTASVVGASVCRSGSTTGWHCGTIQQLNTSVTYPEGTISGVTRTSVCAEPGDSGGSYISGSQAQGVTSGGSGNCSSGGTTYFQPINPLLQAYGLTLVTSGGGTPTDPPTTPPTDSPGGTWAVGTAYAAGATVTYGGATYRCLQAHTAQPGWTPADVPALWQRV

Legend:
SGPC [1] = assay type: biochemical, Streptomyces griseus; settings: for % remaining activity compared to a noninhibited control: pH 8
SGPC [2] = assay: Substrate specificity of SGPC with tetrapeptide substrates sAAPXpNA; assay type: biochemical, Streptomyces griseus; settings: pH 8.0, 10% DMSO, 24° C.
Protocol: The enzyme was assayed with a series of tetrapeptide substrates which had the form succinyl-Ala-Ala-Pro-X-para-nitroanilide (sAAPXpNA) (SEQ ID NOS. 3-20), where X is the P1 amino acid (the residue found on the N-terminal side of the bond which is cleaved). Kinetics constants kcat and Km were determined by assaying an appropriate dilution of SGPC with eight different concentrations of each substrate. Each substrate was dissolved in 100% DMSO to a concentration of 100 mM with the exception of sAAPQpNA (SEQ ID NO. 13) which was soluble only to a concentration of 15 mM. Five ul of an appropriate dilution of SGPC was placed in the wells of a microtiter dish. The reaction was initiated by adding 95 ul of the reaction mixture which was comprised of 50 ul of sodium bicine, pH 8.0, 35 ul of water, and 10 ul of the appropriate concentration of substrate in DMSO. The final concentration of DMSO was 10% in all of the reactions. All substrate concentrations were done in triplicate and rates were determined at 24° C. using a microtiter plate reader.

[3] = biological target: succinyl-Ala-Ala-Pro-Phe-para-nitroanilide
[4] = Wash performance test, beaker-scale grass stain removal from cotton swatches
pH profile of SGPC = assay type: biochemical; settings: 2 mM SAAPFpNA, 10% DMSO
[5] = for % activity compared to the non-treated control: 24° C., pH 5.0

Row | Molecule | Km (SGPC [2]) [mM] | kcat (SGPC [2]) [S^-1] | kcat /Km (SGPC [2]) | also measured
1 | O=C(O)CN(CCN(CC(=O)O)CC(=O)O)CC(=O)O [EDTA, ethylenediaminetetraacetic acid] |  |  |  | inhibition of SGPC (in words) (SGPC [1]): no significant inhibition; % remaining activity compared to a noninhibited control (SGPC [1]): 97% and 94%
2 | O=C(O)CI [IOAc, iodoacetic acid] |  |  |  | inhibition of SGPC (in words) (SGPC [1]): no significant inhibition; % remaining activity compared to a noninhibited control (SGPC [1]): 104% and 103%
3 | O=S(=O)(F)Cc1ccccc1 [PMSF, phenylmethylsulfonyl fluoride] |  |  |  | inhibition of SGPC (in words) (SGPC [1]): inhibit SGPC; % remaining activity compared to a noninhibited control (SGPC [1]): 0.07% and 0.06%
4 | C[C@H](NC(=O)CCC(=O)O)C(=O)N[C@@H](C)C(=O)N1CCC[C@H]1C(=O)N[C@@H](C)C(=O)Nc1ccc([N+](=O)[O-])cc1 [sAAPApNA] (Suc-AAPA-pNA) | 5.29 | 36.1 | 6,826 M^-1 S^-1 | 
5 | C[C@H](NC(=O)CCC(=O)O)C(=O)N[C@@H](C)C(=O)N1CCC[C@H]1C(=O)N[C@@H](CS)C(=O)Nc1ccc([N+](=O)[O-])cc1 [sAAPCpNA] (Suc-AAPC-pNA) | 4.26 | 61.3 | 14,380 M^-1 S^-1 | 
6 | C[C@H](NC(=O)CCC(=O)O)C(=O)N[C@@H](C)C(=O)N1CCC[C@H]1C(=O)N[C@@H](CC(=O)O)C(=O)Nc1ccc([N+](=O)[O-])cc1 [sAAPDpNA] (Suc-AAPD-pNA) | 19.6 | 6.89 | 351 M^-1 S^-1 | 
7 | C[C@H](NC(=O)CCC(=O)O)C(=O)N[C@@H](C)C(=O)N1CCC[C@H]1C(=O)N[C@@H](CCC(=O)O)C(=O)Nc1ccc([N+](=O)[O-])cc1 [sAAPEpNA] (Suc-AAPE-pNA) |  |  |  | rates seen with the substrate (SGPC [2]): too samll to be reliable
8 | C[C@H](NC(=O)CCC(=O)O)C(=O)N[C@@H](C)C(=O)N1CCC[C@H]1C(=O)N[C@@H](Cc1ccccc1)C(=O)Nc1ccc([N+](=O)[O-])cc1 [sAAPFpNA, succinyl-Ala-Ala-Pro-Phe-para-nitroanilide] (Suc-AAPF-pNA) | 0.29 | 39.7 | 137,600 M^-1 S^-1 | 
9 | C[C@H](NC(=O)CCC(=O)O)C(=O)N[C@@H](C)C(=O)N1CCC[C@H]1C(=O)NCC(=O)Nc1ccc([N+](=O)[O-])cc1 [sAAPGpNA] (Suc-AAPG-pNA) |  |  |  | rates seen with the substrate (SGPC [2]): too samll to be reliable
10 | C[C@H](NC(=O)CCC(=O)O)C(=O)N[C@@H](C)C(=O)N1CCC[C@H]1C(=O)N[C@@H](Cc1cnc[nH]1)C(=O)Nc1ccc([N+](=O)[O-])cc1 [sAAPHpNA] (Suc-AAPH-pNA) | 1.09 | 24.0 | 21,960 M^-1 S^-1 | 
11 | CC[C@H](C)[C@H](NC(=O)[C@@H]1CCCN1C(=O)[C@H](C)NC(=O)[C@H](C)NC(=O)CCC(=O)O)C(=O)Nc1ccc([N+](=O)[O-])cc1 [sAAPIpNA] (Suc-AAPI-pNA) |  |  |  | rates seen with the substrate (SGPC [2]): too samll to be reliable
12 | C[C@H](NC(=O)CCC(=O)O)C(=O)N[C@@H](C)C(=O)N1CCC[C@H]1C(=O)N[C@@H](CCCCN)C(=O)Nc1ccc([N+](=O)[O-])cc1 [sAAPKpNA] (Suc-AAPK-pNA) | 4.22 | 10.9 | 2,577 M^-1 S^-1 | 
13 | CC(C)C[C@H](NC(=O)[C@@H]1CCCN1C(=O)[C@H](C)NC(=O)[C@H](C)NC(=O)CCC(=O)O)C(=O)Nc1ccc([N+](=O)[O-])cc1 [sAAPLpNA] (Suc-AAPL-pNA) | 0.92 | 24.8 | 27,030 M^-1 S^-1 | 
14 | CSCC[C@H](NC(=O)[C@@H]1CCCN1C(=O)[C@H](C)NC(=O)[C@H](C)NC(=O)CCC(=O)O)C(=O)Nc1ccc([N+](=O)[O-])cc1 [sAAPMpNA] (Suc-AAPM-pNA) | 0.39 | 39.3 | 100,400 M^-1 S^-1 | 
15 | C[C@H](NC(=O)CCC(=O)O)C(=O)N[C@@H](C)C(=O)N1CCC[C@H]1C(=O)N[C@@H](CC(N)=O)C(=O)Nc1ccc([N+](=O)[O-])cc1 [sAAPNpNA] (Suc-AAPN-pNA) | 2.91 | 35.3 | 12,160 M^-1 S^-1 | 
16 | C[C@H](NC(=O)CCC(=O)O)C(=O)N[C@@H](C)C(=O)N1CCC[C@H]1C(=O)N[C@@H](CCC(N)=O)C(=O)Nc1ccc([N+](=O)[O-])cc1 [sAAPQpNA] (Suc-AAPQ-pNA) | 14.3 | 36.3 | 2,547 M^-1 S^-1 | 
17 | C[C@H](NC(=O)CCC(=O)O)C(=O)N[C@@H](C)C(=O)N1CCC[C@H]1C(=O)N[C@@H](CCCNC(=N)N)C(=O)Nc1ccc([N+](=O)[O-])cc1 [sAAPRpNA] (Suc-AAPR-pNA) | 4.17 | 16.7 | 4,001 M^-1 S^-1 | 
18 | C[C@H](NC(=O)CCC(=O)O)C(=O)N[C@@H](C)C(=O)N1CCC[C@H]1C(=O)N[C@@H](CO)C(=O)Nc1ccc([N+](=O)[O-])cc1 [sAAPSpNA] (Suc-AAPS-pNA) | 3.73 | 7.05 | 1,893 M^-1 S^-1 | 
19 | C[C@H](NC(=O)CCC(=O)O)C(=O)N[C@@H](C)C(=O)N1CCC[C@H]1C(=O)N[C@H](C(=O)Nc1ccc([N+](=O)[O-])cc1)[C@@H](C)O [sAAPTpNA] (Suc-AAPT-pNA) | 4.34 | 7.69 | 1,769 M^-1 S^-1 | 
20 | CC(C)[C@H](NC(=O)[C@@H]1CCCN1C(=O)[C@H](C)NC(=O)[C@H](C)NC(=O)CCC(=O)O)C(=O)Nc1ccc([N+](=O)[O-])cc1 [sAAPVpNA] (Suc-AAPV-pNA) | 1.08 | 0.53 | 1,422 M^-1 S^-1 | 
21 | C[C@H](NC(=O)CCC(=O)O)C(=O)N[C@@H](C)C(=O)N1CCC[C@H]1C(=O)N[C@@H](Cc1ccc(O)cc1)C(=O)Nc1ccc([N+](=O)[O-])cc1 [sAAPYpNA] (Suc-AAPY-pNA) | 0.49 | 27.7 | 61,770 M^-1 S^-1 | 
22 | S. griseus protease C (enzyme) |  |  |  | kcat /Km (sAAPApNA): 6830 M^-1 S^-1; kcat /Km (sAAPCpNA): 14400 M^-1 S^-1; kcat /Km (sAAPDpNA): 351 M^-1 S^-1; kcat /Km (sAAPHpNA): 22000 M^-1 S^-1; kcat /Km (sAAPKpNA): 2580 M^-1 S^-1; kcat /Km (sAAPLpNA): 27000 M^-1 S^-1; kcat /Km (sAAPMpNA): 100000 M^-1 S^-1; kcat /Km (sAAPNpNA): 12200 M^-1 S^-1; kcat /Km (sAAPQpNA): 2550 M^-1 S^-1; kcat /Km (sAAPRpNA): 4000 M^-1 S^-1; kcat /Km (sAAPSpNA): 1890 M^-1 S^-1; kcat /Km (sAAPTpNA): 1770 M^-1 S^-1; kcat /Km (sAAPVpNA): 1420 M^-1 S^-1; kcat /Km (sAAPYpNA): 61800 M^-1 S^-1; kcat /Km [3]: 138000 M^-1 S^-1
23 | B1 |  |  |  | effectiveness against grass stain compared with Savinase ([4]; equal weight of protease in the wash liquor): more effective than Savinase; (delta) % SRE (percent stain removal over a control containing no enzyme) ([4]; grass stain, cotton swatches, 37° C., powdered detergent 104 g/69 liters, pH 10.5, 0.25 mg protease/500 ml wash liquor): 59.6%; pH optimum (in words) (pH profile of SGPC): highly alkaline pH optimum; % activity compared to the non-treated control ([5]; 2 M Guanidine, 1 hour): 125.7%; % activity compared to the non-treated control ([5]; 2 M Guanidine, 24 hours): 105.7%; % activity compared to the non-treated control ([5]; 2 M Urea, 1 hour): 103.5%; % activity compared to the non-treated control ([5]; 2 M Urea, 24 hours): 98.1%; effect on the activity (in words) ([5]; 2 M to 6 M urea, 24 hr vs 1 hr): very little effect; % activity compared to the non-treated control ([5]; 4 M Guanidine, 1 hour): 130.4%; % activity compared to the non-treated control ([5]; 4 M Guanidine, 24 hours): 55.8%; % activity compared to the non-treated control ([5]; 4 M Urea, 1 hour): 118.2%; % activity compared to the non-treated control ([5]; 4 M Urea, 24 hours): 112.4%; % activity compared to the non-treated control ([5]; 6 M Guanidine, 1 hour): 98.0%; % activity compared to the non-treated control ([5]; 6 M Guanidine, 24 hours): 10.1%; % activity compared to the non-treated control ([5]; 6 M Urea, 1 hour): 116.4%; % activity compared to the non-treated control ([5]; 6 M Urea, 24 hours): 112.9%; effect on the activity (in words) ([5]; Guanidine 4 M to 6 M, 24 hr): substantial losses of activity; effect on the activity (in words) ([5]; Guanidine at 2 M, 24 hr): slight effect
